Read-outs that look alike come from different tables or passages of the source.
Assays:
[1] = tested on: cleaved PARP and caspase 3 in H1299 cells; assay: Western blotting, cleaved PARP and caspase 3 (apoptosis); format: cell-based, human; details: H1299 cells
Description: (§1) Whole cell extraction was performed according to a previously described method using cell lysing buffer (Cell Signaling) supplemented with 10 mmol/L NaF for protein phosphorylation studies. Cell lysates were separated by 4-12% gradient, 7% or 10% pre-casting PAGE (Novex/Invitrogen) followed by electrophoretic transfer to a nitrocellulose membrane. Western blotting procedures were performed using Chemiluminescence Reagent (Pierce) and visualized using Chemi Doc Imaging System (BioRad).

[2] = tested on: normal human airway epithelial cells (NHAECs); assay: Growth assay (Cell Titer Glo); format: cell-based
Description: (§2) Cells were plated in half area 96-well microtiter plates (Corning) at a density of 3, 000 cells per well. For drug treatment, cells were treated with compound or DMSO as vehicle (final concentration at 0.2%). For siRNA assays, cells were transfected with siRNAs under the same condition as described above. The effect of treatment on cell growth was measured using the Cell Titer Glo (CTG) assay (Promega) as specified by the measurement of viable cells based on ATP content after 72 hours standard culture. All growth assay involving NSCLCs and NHAECs were performed in the presence of 5% serum.
(§3) Drug effects on cell growth and IC50 values were determined as described previously. All experiments were repeated a minimum of three times to determine the reproducibility of the results. All error bars represent standard error of the mean (SEM). Statistical analysis was performed using Student’s t test or other as indicated. A P value of <0.05 was considered statistically significant.

A549 cells = assay: Growth assay (Cell Titer Glo); format: cell-based; details: Homo sapiens; A549, 72 hours, 5% serum; read-out: Growth inhibition IC50
Description: as §2, §3

H1975 cells = assay: Growth assay (Cell Titer Glo); format: cell-based; details: Homo sapiens, NCI-H1975; H1975, 72 hours, 5% serum; read-out: Growth inhibition IC50
Description: as §2, §3

H460 cells = assay: Growth assay (Cell Titer Glo); format: cell-based; details: Homo sapiens, NCI-H460; H460, 72 hours, 5% serum; read-out: Growth inhibition IC50
Description: as §2, §3

[3] = tested on: HOP62 PDE10 knockdown cells (shPDE10); assay: Growth assay (Cell Titer Glo); format: cell-based, human; details: shPDE10, PQ10 2 µmol/L
Description: The transient knockdown of PDE10 in NSCLC cells by PDE10-specific siRNA and scramble siRNA control was performed using RNAiMAX reagent (Invitrogen) as previously described. Effects of siRNA on NSCLC cell growth and PDE10 expression levels were measured after 72 hours of treatment. For a stable knockdown of PDE10, GIPZ lentiviral short hairpin RNA (shRNA) vectors targeting human PDE10, nonsilencing GPIZ lentiviral control vector, and transduction kit were purchased from Open Biosystems. Lentiviral particles of shRNA were produced in HEK293T cells (ATCC) according to the manufacturer’s instructions. HOP62 NSCLC cells were transfected by the lentivirus particles followed by puromycin (5 μg/mL) selection. Stable expression cell lines with shRNA of PDE10 (shPDE10) or lentiviral vector control (shCTL) were obtained by limited dilution for single cell clone and confirmed by Western blotting.
Cells were plated in half area 96-well microtiter plates (Corning) at a density of 3, 000 cells per well. For drug treatment, cells were treated with compound or DMSO as vehicle (final concentration at 0.2%). For siRNA assays, cells were transfected with siRNAs under the same condition as described above. The effect of treatment on cell growth was measured using the Cell Titer Glo (CTG) assay (Promega) as specified by the measurement of viable cells based on ATP content after 72 hours standard culture. […]

PDE2A = PDE2A (Homo sapiens, UniProt O00408); assay: IMAP fluorescence polarization PDE assay, recombinant PDE isozymes; format: biochemical
Sequence of PDE2A (O00408 whole entry): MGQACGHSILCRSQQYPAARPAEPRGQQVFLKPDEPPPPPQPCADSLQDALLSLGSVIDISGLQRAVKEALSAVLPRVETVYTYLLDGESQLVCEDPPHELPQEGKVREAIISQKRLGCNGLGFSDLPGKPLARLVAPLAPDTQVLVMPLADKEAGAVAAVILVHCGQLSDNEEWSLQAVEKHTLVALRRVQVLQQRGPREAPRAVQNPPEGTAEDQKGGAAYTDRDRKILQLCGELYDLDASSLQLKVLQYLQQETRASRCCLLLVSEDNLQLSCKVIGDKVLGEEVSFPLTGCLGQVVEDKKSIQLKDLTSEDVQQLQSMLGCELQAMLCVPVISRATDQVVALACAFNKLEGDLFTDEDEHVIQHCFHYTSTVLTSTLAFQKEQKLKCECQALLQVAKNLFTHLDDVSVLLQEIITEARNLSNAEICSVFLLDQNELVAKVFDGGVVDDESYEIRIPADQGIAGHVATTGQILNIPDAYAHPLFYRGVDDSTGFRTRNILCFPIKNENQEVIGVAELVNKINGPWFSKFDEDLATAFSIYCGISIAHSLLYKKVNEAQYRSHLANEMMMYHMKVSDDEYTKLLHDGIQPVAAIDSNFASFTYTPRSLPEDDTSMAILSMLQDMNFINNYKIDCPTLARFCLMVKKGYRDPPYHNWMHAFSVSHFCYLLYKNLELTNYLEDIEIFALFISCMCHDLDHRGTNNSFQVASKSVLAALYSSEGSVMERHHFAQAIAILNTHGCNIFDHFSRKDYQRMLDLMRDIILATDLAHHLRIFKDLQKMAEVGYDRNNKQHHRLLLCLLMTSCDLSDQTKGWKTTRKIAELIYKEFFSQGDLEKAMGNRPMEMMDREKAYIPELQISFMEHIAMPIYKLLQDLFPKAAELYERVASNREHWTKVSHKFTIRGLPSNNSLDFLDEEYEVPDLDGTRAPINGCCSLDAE
Description: (§4) The enzymatic activity of recombinant PDE or PDE activities in cell lysates were measured using the IMAP fluorescence polarization (FP) PDE assay (Molecular Devices) as previously described. PDE10 inhibitors and DMSO as the vehicle were added to assay buffer 10 minutes before the incubation with the enzyme reaction. Fluorescence polarization values were measured using Synergy H4 Hybrid Reader (BioTek).

PDE4B = PDE4B (Homo sapiens, UniProt Q07343); assay: as above; format: biochemical; details: substrate cAMP; read-out: IC50 of PQ10 cAMP
Sequence of PDE4B (Q07343 whole entry): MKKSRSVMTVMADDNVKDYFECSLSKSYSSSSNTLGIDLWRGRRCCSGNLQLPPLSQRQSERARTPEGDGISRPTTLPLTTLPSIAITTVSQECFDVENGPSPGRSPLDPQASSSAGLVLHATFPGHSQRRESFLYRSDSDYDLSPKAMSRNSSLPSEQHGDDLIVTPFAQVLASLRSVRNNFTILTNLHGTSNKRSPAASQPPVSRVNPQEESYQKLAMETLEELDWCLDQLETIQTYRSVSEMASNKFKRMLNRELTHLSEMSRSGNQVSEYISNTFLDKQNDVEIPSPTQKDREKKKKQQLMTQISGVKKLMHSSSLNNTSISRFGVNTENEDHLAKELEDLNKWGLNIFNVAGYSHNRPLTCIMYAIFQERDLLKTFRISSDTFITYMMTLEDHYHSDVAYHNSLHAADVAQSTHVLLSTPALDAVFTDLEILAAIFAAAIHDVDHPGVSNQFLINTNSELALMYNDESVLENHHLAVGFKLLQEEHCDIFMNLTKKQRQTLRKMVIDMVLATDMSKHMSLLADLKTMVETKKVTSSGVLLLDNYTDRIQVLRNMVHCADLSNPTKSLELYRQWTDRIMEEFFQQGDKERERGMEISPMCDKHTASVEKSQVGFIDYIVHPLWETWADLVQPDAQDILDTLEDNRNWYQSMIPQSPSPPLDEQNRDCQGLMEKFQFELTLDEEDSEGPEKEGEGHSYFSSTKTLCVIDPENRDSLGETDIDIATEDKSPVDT
Description: as §4

PDE11A = PDE11A (Homo sapiens, UniProt Q9HCR9); assay: as above; format: biochemical
Sequence of PDE11A (Q9HCR9 whole entry): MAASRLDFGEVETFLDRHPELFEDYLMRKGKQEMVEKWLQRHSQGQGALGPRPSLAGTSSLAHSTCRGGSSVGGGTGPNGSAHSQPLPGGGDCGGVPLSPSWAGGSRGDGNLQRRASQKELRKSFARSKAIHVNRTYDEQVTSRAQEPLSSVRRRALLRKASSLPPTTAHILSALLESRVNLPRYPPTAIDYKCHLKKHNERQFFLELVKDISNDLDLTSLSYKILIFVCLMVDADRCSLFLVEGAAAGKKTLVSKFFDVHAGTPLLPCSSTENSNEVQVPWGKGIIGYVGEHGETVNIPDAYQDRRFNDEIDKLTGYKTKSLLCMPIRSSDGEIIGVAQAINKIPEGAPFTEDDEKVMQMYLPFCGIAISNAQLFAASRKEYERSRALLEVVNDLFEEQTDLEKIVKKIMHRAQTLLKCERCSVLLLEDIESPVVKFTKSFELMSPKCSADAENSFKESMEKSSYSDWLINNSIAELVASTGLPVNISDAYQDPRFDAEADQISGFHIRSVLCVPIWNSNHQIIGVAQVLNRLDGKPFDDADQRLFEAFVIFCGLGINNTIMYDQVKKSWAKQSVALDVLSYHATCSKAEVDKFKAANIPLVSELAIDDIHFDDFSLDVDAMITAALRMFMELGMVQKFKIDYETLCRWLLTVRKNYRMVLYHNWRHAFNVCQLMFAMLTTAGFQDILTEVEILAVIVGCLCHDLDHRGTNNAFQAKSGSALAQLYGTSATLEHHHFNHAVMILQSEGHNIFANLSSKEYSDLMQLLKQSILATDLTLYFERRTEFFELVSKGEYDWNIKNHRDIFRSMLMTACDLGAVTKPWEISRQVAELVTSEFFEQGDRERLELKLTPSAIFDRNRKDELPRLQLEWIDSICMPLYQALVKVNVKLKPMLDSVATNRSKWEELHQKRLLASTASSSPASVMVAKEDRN
Description: as §4

PDE5A = PDE5A (Homo sapiens, UniProt O76074); assay: as above; format: biochemical; details: substrate cGMP; read-out: IC50 of PQ10 cGMP
Description: as §4

PDE10A = PDE10A (Homo sapiens, UniProt Q9Y233); assay: as above; format: biochemical
Sequence of PDE10A (Q9Y233 718-1035 limits assumed): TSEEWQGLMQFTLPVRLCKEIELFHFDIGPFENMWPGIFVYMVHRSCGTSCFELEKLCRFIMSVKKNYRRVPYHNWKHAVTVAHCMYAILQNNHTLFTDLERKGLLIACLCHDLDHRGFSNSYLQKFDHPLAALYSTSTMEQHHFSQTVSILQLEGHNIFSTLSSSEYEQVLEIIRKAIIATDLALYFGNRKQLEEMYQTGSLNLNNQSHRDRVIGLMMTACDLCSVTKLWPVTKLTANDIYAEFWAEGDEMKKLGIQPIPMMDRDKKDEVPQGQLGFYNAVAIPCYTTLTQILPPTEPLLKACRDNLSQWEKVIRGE
Description: as §4

PDE3A = PDE3A (Homo sapiens, UniProt Q14432); assay: as above; format: biochemical
Sequence of PDE3A (Q14432 whole entry): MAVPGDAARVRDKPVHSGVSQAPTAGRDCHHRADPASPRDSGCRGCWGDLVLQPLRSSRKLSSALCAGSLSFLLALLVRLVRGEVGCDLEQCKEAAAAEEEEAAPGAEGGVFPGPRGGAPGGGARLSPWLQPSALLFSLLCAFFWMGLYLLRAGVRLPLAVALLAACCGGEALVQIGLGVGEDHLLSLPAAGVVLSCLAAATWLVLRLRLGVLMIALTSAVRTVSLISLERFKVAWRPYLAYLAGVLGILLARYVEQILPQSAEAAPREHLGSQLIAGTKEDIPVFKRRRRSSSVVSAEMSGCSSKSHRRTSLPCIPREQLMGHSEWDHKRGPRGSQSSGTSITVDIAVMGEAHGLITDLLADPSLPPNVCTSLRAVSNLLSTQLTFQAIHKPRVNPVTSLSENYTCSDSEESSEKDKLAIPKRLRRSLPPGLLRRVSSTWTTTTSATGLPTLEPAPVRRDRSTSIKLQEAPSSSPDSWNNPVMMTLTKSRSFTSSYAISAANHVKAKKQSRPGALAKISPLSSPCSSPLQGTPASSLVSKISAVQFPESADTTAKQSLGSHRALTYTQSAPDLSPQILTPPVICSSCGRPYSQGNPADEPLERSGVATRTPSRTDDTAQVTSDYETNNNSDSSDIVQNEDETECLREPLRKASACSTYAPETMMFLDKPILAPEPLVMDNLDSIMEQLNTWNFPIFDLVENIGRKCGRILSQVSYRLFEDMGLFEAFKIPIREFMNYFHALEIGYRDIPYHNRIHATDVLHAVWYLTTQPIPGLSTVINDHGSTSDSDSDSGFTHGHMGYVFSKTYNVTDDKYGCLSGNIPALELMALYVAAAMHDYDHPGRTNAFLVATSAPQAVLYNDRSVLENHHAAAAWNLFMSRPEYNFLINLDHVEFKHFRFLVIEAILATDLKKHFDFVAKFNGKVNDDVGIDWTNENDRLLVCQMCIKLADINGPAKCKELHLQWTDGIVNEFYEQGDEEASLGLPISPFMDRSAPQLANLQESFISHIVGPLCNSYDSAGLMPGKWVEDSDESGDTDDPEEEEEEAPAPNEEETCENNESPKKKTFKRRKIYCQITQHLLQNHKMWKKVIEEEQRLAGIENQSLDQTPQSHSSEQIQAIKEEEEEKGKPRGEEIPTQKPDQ
Description: as §4

PDE1A = PDE1A (Homo sapiens, UniProt P54750); assay: as above; format: biochemical
Sequence of PDE1A (P54750 whole entry): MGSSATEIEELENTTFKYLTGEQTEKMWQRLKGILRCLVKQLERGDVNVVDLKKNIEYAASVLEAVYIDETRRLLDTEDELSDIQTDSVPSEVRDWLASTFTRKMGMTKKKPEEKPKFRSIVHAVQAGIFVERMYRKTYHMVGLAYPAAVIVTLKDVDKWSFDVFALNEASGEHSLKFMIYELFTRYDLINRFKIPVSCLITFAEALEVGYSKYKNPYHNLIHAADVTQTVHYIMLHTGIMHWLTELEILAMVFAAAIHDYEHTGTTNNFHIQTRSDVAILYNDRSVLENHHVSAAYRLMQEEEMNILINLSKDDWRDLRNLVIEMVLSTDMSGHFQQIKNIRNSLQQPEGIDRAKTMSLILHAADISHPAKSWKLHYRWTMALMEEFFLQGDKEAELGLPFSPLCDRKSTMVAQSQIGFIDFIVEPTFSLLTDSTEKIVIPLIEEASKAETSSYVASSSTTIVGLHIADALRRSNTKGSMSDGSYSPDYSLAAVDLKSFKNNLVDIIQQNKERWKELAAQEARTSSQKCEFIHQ
Description: as §4

[4] = tested on: intracellular cGMP levels in H1299 cells; assay: cGMP biosensor assay (luciferase); format: cell-based, human; details: for EC50: Homo sapiens, NCI-H1299, H1299 biosensor cells, read-out: EC50 to induce cGMP elevation
Description: (§5) Stable cell lines with an expression of luciferase-based cGMP biosensor were established from H1299 NSCLC cells and HEK293 cells using a genetically encoded GAF-Luc construct (Promega), containing a cGMP-specific binding domain from human PDE5A GAF-A domain fused to modified firefly luciferase (35). Cells were pre-incubated at room temperature in CO2 independent media supplemented with 10% FBS and 5 mmol/L luciferin. For the measurement of intracellular cGMP levels, sodium nitroprusside (SNP) or C-type natriuretic peptide (CNP) in combination with PDE inhibitors were added to initiate the experiment and the increased luminescence values in live cells were detected constantly over a period time of 2 hours.

[5] = tested on: intracellular cGMP levels in HEK293 cells; assay: cGMP biosensor assay (luciferase); format: cell-based, human
Description: as §5

[6] = tested on: PKG activation in H1299 cells; assay: Western blotting, PKG activation (pSer239-VASP); format: cell-based, human
Description: as §1

human lung tumor cells = assay: Growth assay (Cell Titer Glo), lung tumor cell panel; format: cell-based
Description: as §2, §3

[7] = substrate cAMP, read-out: IC50 of PQ10 cAMP
[8] = substrate cGMP, read-out: IC50 of PQ10 cGMP

In the case of `COc1cc2ncnc(N3CC[C@@H](Oc4cnc5ccccc5n4)C3)c2cc1OC` [PQ10], the “lowest concentration increasing cleaved PARP and caspase 3” value ([1]; 24 hours of treatment) is reported as 0.1 µmol/L, the “concentration of maximum effect on cleaved PARP and caspase 3” value ([1]; 48 hours of treatment) is reported as 5 µmol/L and the IC50 ([2]; Homo sapiens, Epithelial cell, NHAEC, 72 hours, 5% serum, read-out: Growth inhibition IC50) is reported as 17300 nM. The “fold less sensitive to PQ10 treatment (NHAECs vs lung tumor cells)” value ([2]; growth assays under identical conditions) was no more than 50 fold, the IC50 (A549 cells) was 540 nM and the IC50 (H1975 cells) was 1270 nM. For the same compound, the IC50 (H460 cells) was 320 nM, the “sensitivity of PDE10 knockdown HOP62 cells in growth assay” value [3] was “appreciably less sensitive” and the IC50 (PDE2A; [7]) was 7000 nM. The IC50 (PDE2A; [8]) was 3700 nM, the IC50 (PDE4B) was 17800 nM and the IC50 (PDE11A; [7]) was 30100 nM. The IC50 (PDE11A; [8]) was 13200 nM, the IC50 (PDE5A) was 1800 nM and the IC50 (PDE10A; [7]) was 13 nM. For the same compound, the IC50 (PDE10A; [8]) was 5 nM, the IC50 (PDE3A; [7]) was 470 nM and the IC50 (PDE3A; [8]) was 320 nM. For the same compound, the IC50 (PDE1A; [7]) was 29200 nM, the IC50 (PDE1A; [8]) was 8800 nM and the “time to increase in cGMP levels” value ([4]; H1299 biosensor cells, sustained to 2 hours) was no more than 1 h. The EC50 ([4]; CNP (100 nmol/L) stimulation) was 1310 nM, the EC50 ([4]; SNP (100 µmol/L) stimulation) was 1720 nM and the EC50 ([5]; Homo sapiens, HEK293 biosensor cells, SNP (100 µmol/L) stimulation, read-out: EC50 to induce cGMP elevation) was 5670 nM. For the same compound, the “EC50 fold higher in HEK293 than in H1299 biosensor cells” value ([5]; SNP (100 µmol/L)) was “about 3.3 fold”, the “time to increase in pSer239-VASP levels” value [6] was no more than 30 minutes and the “maximum reduction of viable cell number” value (human lung tumor cells; 3 days of treatment) was “greater than 75%”. The IC50 (human lung tumor cells; Homo sapiens, 72 h, read-out: Growth inhibition IC50 values, range over human lung tumor cells) was 320 to 1690 nM.
